According to patent US11479551B2, “MTA-cooperative PRMT5 inhibitors” (Mirati Therapeutics, Inc., priority 2019, dated 2022):
Values joined by “and” are separate entries in the source; they are usually repeats but may differ in a detail not shown here. Identical values can stand only once.

What follows are compounds tested against PRMT5/MEP50 complex (Homo sapiens (Human), UniProt O14744) (assay: PRMT5:MEP50 HotSpot Assay (full-length histone H2A substrate, plus and minus MTA)). Settings: IC50 + 2 μM MTA, in the presence of 2 μM MTA.
Sequence of PRMT5/MEP50 complex (O14744 2-637): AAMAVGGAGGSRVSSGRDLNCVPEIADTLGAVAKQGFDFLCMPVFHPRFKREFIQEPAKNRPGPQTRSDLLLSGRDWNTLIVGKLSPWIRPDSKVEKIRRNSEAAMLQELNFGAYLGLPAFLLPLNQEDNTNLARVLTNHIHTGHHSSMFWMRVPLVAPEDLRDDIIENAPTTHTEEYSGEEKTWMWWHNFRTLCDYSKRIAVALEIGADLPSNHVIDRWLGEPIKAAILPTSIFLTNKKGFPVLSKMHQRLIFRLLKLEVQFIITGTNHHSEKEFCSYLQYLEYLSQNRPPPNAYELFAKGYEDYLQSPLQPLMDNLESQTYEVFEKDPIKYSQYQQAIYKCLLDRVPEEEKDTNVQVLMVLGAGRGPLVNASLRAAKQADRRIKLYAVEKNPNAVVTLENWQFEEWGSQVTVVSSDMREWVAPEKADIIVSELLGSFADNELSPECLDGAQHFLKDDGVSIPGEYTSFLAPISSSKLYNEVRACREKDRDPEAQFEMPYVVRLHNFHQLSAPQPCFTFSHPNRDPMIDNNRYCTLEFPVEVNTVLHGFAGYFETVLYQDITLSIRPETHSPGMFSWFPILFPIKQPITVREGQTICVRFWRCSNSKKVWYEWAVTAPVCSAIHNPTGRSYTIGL
Sequence of PRMT5/MEP50 complex (Q9BQA1 2-342 partner): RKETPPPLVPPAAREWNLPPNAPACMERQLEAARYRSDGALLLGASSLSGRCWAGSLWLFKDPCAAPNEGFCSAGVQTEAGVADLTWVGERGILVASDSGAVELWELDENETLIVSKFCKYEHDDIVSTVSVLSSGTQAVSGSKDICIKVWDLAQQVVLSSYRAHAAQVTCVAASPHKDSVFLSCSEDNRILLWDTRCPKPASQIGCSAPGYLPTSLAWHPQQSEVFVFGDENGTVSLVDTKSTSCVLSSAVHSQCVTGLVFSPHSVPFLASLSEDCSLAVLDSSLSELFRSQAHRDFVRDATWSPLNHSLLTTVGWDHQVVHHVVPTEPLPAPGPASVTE
Format: biochemical
Procedure: The PRMT5 inhibitory activity of compounds of the present invention was determined using either a PRMT5:MEP50 FlashPlate Assay (Reaction Biology Corporation) or a PRMT5:MEP50 HotSpot Assay (Reaction Biology Corporation).
The assay uses recombinant full-length histone H2A as the PRMT5 substrate. […] The reaction was stopped and transferred to filter paper for detection. The amount of tritiated H2A in each sample was determined using a scintillation counter.
`NCc1n[nH]c(=O)c2ccc(-c3cncc(Oc4cccc5cccnc45)c3)cc12` [Example 4-121, 4-(aminomethyl)-6-(5-(quinolin-8-yloxy)pyridin-3-yl)phthalazin-1(2H)-one] was tested, and the IC50 was 177 nM.
`CN(c1cncc(-c2ccc3c(=O)[nH]nc(CN)c3c2)c1)c1cccc2cccnc12` [Example 4-122, 4-(aminomethyl)-6-(5-(methyl(quinolin-8-yl)amino)pyridin-3-yl)phthalazin-1(2H)-one] showed an IC50 of 3820 nM.
`CCc1cccc(-c2c(-c3ccc4c(=O)[nH]nc(CN)c4c3)cnn2C)c1C#N` [Example 4-123, 2-(4-(4-(aminomethyl)-1-oxo-1,2-dihydrophthalazin-6-yl)-1-methyl-1H-pyrazol-5-yl)-6-ethylbenzonitrile] was tested, and the IC50 was 549 nM.
`CCc1ccc(-c2c(-c3ccc4c(=O)[nH]nc(CN)c4c3)cnn2C)c(C#N)c1` [Example 4-124, 2-(4-(4-(aminomethyl)-1-oxo-1,2-dihydrophthalazin-6-yl)-1-methyl-1H-pyrazol-5-yl)-5-ethylbenzonitrile] showed an IC50 of 826 nM.
`CCc1ccc(C#N)c(-c2c(-c3ccc4c(=O)[nH]nc(CN)c4c3)cnn2C)c1` [Example 4-125, 2-(4-(4-(aminomethyl)-1-oxo-1,2-dihydrophthalazin-6-yl)-1-methyl-1H-pyrazol-5-yl)-4-ethylbenzonitrile] gave an IC50 of 1000 nM.
Compound `Cn1ncc(-c2ccc3c(=O)[nH]nc(CN)c3c2)c1-c1ccc(C2CC2)cc1C#N` [Example 4-126, 2-(4-(4-(aminomethyl)-1-oxo-1,2-dihydrophthalazin-6-yl)-1-methyl-1H-pyrazol-5-yl)-5-cyclopropylbenzonitrile] has an IC50 of 361 nM.
`COc1cc(C#N)c(-c2c(-c3ccc4c(=O)[nH]nc(CN)c4c3)cnn2C)cc1Cl` [Example 4-133, 2-(4-(4-(aminomethyl)-1-oxo-1,2-dihydrophthalazin-6-yl)-1-methyl-1H-pyrazol-5-yl)-4-chloro-5-methoxybenzonitrile] showed an IC50 of 1570 nM.
For `CCc1ccc(-c2c(-c3ccc4c(=O)[nH]nc(CN)c4c3)cnn2C)cc1` [Example 4-134, 4-(aminomethyl)-6-(5-(4-ethylphenyl)-1-methyl-1H-pyrazol-4-yl)phthalazin-1(2H)-one], the IC50 was 2730 nM.
Work on `Cn1ncc(-c2ccc3c(=O)[nH]nc(CN)c3c2)c1-c1ccc(OC2CC2)cc1` [Example 4-136, 4-(aminomethyl)-6-(5-(4-cyclopropoxyphenyl)-1-methyl-1H-pyrazol-4-yl)phthalazin-1(2H)-one] yielded an IC50 of 872 nM.
Compound `Cn1ncc(-c2ccc3c(=O)[nH]nc(CN)c3c2)c1-c1ccc(OC2CCC2)cc1` [Example 4-138, 4-(aminomethyl)-6-(5-(4-cyclobutoxyphenyl)-1-methyl-1H-pyrazol-4-yl)phthalazin-1(2H)-one] has an IC50 of 354 nM.
With `Cn1ncc(-c2ccc3c(=O)[nH]nc(CN)c3c2)c1-c1ccccc1Cl` [Example 4-143, 4-(aminomethyl)-6-(5-(2-chlorophenyl)-1-methyl-1H-pyrazol-4-yl)phthalazin-1(2H)-one] the IC50 was 1170 nM.
Compound `Cn1ncc(-c2ccc3c(=O)[nH]nc(CN)c3c2)c1-c1c(Cl)cccc1Cl` [Example 4-144, 4-(aminomethyl)-6-(5-(2,6-dichlorophenyl)-1-methyl-1H-pyrazol-4-yl)phthalazin-1(2H)-one] has an IC50 of 454 nM.
`Cn1ncc(-c2ccc3c(=O)[nH]nc(CN)c3c2)c1-c1c(F)cccc1C#N` [Example 4-152, 2-(4-(4-(aminomethyl)-1-oxo-1,2-dihydrophthalazin-6-yl)-1-methyl-1H-pyrazol-5-yl)-3-fluorobenzonitrile] was tested, and the IC50 was 978 nM and 1910 nM.
`Cn1ncc(-c2ccc3c(=O)[nH]nc(CN)c3c2)c1-c1ccccc1C(F)F` [Example 4-153, 4-(aminomethyl)-6-(5-(2-(difluoromethyl)phenyl)-1-methyl-1H-pyrazol-4-yl)phthalazin-1(2H)-one] gave an IC50 of 1650 nM.
With `Cn1ncc(-c2ccc3c(=O)[nH]nc(CN)c3c2)c1OCc1ccccc1Cl` [Example 4-154, 4-(aminomethyl)-6-(5-((2-chlorobenzyl)oxy)-1-methyl-1H-pyrazol-4-yl)phthalazin-1(2H)-one] the IC50 was 3280 nM.
Compound `Cn1ncc(-c2ccc3c(=O)[nH]nc(CN)c3c2)c1OCc1cccc(Cl)c1` [Example 4-155, 4-(aminomethyl)-6-(5-((3-chlorobenzyl)oxy)-1-methyl-1H-pyrazol-4-yl)phthalazin-1(2H)-one] has an IC50 of 3460 nM.
`Cn1ncc(-c2ccc3c(=O)[nH]nc(CN)c3c2)c1OCc1ccc(Cl)cc1` [Example 4-156, 4-(aminomethyl)-6-(5-((4-chlorobenzyl)oxy)-1-methyl-1H-pyrazol-4-yl)phthalazin-1(2H)-one] gave an IC50 of 9130 nM.
`COc1ccc(Oc2cncc(-c3ccc4c(=O)[nH]nc(CN)c4c3)c2)c(OC)c1` [Example 4-162, 4-(aminomethyl)-6-(5-(2,4-dimethoxyphenoxy)pyridin-3-yl)phthalazin-1(2H)-one] was tested, and the IC50 was 842 nM.
For `Cn1ncc(-c2ccc3c(=O)[nH]nc(CN)c3c2)c1-c1cc(Cl)cc(Cl)c1C#N` [Example 4-165, 2-(4-(4-(aminomethyl)-1-oxo-1,2-dihydrophthalazin-6-yl)-1-methyl-1H-pyrazol-5-yl)-4,6-dichlorobenzonitrile], the IC50 was 2410 nM.
`Cn1ncc(-c2ccc3c(=O)[nH]nc(CN)c3c2)c1-c1cc2cccnc2cc1C#N` [Example 4-166, 6-(4-(4-(aminomethyl)-1-oxo-1,2-dihydrophthalazin-6-yl)-1-methyl-1H-pyrazol-5-yl)quinoline-7-carbonitrile] was tested, and the IC50 was 4510 nM.
`Cn1ncc(-c2ccc3c(=O)[nH]nc(CN)c3c2)c1-c1cc2ncccc2cc1C#N` [Example 4-167, 7-(4-(4-(aminomethyl)-1-oxo-1,2-dihydrophthalazin-6-yl)-1-methyl-1H-pyrazol-5-yl)quinoline-6-carbonitrile] showed an IC50 of 6620 nM.
With `COc1cc(Cl)cc(-c2c(-c3ccc4c(=O)[nH]nc(CN)c4c3)cnn2C)c1C#N` [Example 4-168, 2-(4-(4-(aminomethyl)-1-oxo-1,2-dihydrophthalazin-6-yl)-1-methyl-1H-pyrazol-5-yl)-4-chloro-6-methoxybenzonitrile] the IC50 was 1370 nM.
Compound `COc1ccc(-c2c(-c3ccc4c(=O)[nH]nc(CN)c4c3)cnn2C)c(C#N)c1Cl` [Example 4-170, 6-(4-(4-(aminomethyl)-1-oxo-1,2-dihydrophthalazin-6-yl)-1-methyl-1H-pyrazol-5-yl)-2-chloro-3-methoxybenzonitrile] has an IC50 of 728 nM.
With `CN(C)c1c(-c2ccc3c(=O)[nH]nc(CN)c3c2)cnn1C` [Example 4-171, 4-(aminomethyl)-6-(5-(dimethylamino)-1-methyl-1H-pyrazol-4-yl)phthalazin-1(2H)-one] the IC50 was 4440 nM.
For `CCOc1ccc(-c2c(-c3ccc4c(=O)[nH]nc(CN)c4c3)cnn2C)c(C#N)c1` [Example 4-173, 2-(4-(4-(aminomethyl)-1-oxo-1,2-dihydrophthalazin-6-yl)-1-methyl-1H-pyrazol-5-yl)-5-ethoxybenzonitrile], the IC50 was 1600 nM.
In the case of `Cn1ncc(-c2ccc3c(=O)[nH]nc(CN)c3c2)c1OCc1c(Cl)cccc1C#N` [Example 4-174, 2-(((4-(4-(aminomethyl)-1-oxo-1,2-dihydrophthalazin-6-yl)-1-methyl-1H-pyrazol-5-yl)oxy)methyl)-3-chlorobenzonitrile], the IC50 is reported as greater than 10000 nM.
`Cn1ncc(-c2ccc3c(=O)[nH]nc(CN)c3c2)c1-c1cccc(OC2CC2)c1C#N` [Example 4-175, 2-(4-(4-(aminomethyl)-1-oxo-1,2-dihydrophthalazin-6-yl)-1-methyl-1H-pyrazol-5-yl)-6-cyclopropoxybenzonitrile] showed an IC50 of 1120 nM.
In the case of `CC(C)Oc1cccc(-c2c(-c3ccc4c(=O)[nH]nc(CN)c4c3)cnn2C)c1C#N` [Example 4-176, 2-(4-(4-(aminomethyl)-1-oxo-1,2-dihydrophthalazin-6-yl)-1-methyl-1H-pyrazol-5-yl)-6-isopropoxybenzonitrile], the IC50 is reported as 8710 nM.
In the case of `Cn1ncc(-c2ccc3c(=O)[nH]nc(CN)c3c2)c1-c1cccc(OC2CCC2)c1C#N` [Example 4-177, 2-(4-(4-(aminomethyl)-1-oxo-1,2-dihydrophthalazin-6-yl)-1-methyl-1H-pyrazol-5-yl)-6-cyclobutoxybenzonitrile], the IC50 is reported as 5970 nM.
Work on `CCCOc1cccc(-c2c(-c3ccc4c(=O)[nH]nc(CN)c4c3)cnn2C)c1C#N` [Example 4-178, 2-(4-(4-(aminomethyl)-1-oxo-1,2-dihydrophthalazin-6-yl)-1-methyl-1H-pyrazol-5-yl)-6-propoxybenzonitrile] yielded an IC50 of 4880 nM.
For `COc1ccc(-c2c(-c3ccc4c(=O)[nH]nc(CN)c4c3)cnn2C)c(C#N)c1C` [Example 4-179, 6-(4-(4-(aminomethyl)-1-oxo-1,2-dihydrophthalazin-6-yl)-1-methyl-1H-pyrazol-5-yl)-3-methoxy-2-methylbenzonitrile], the IC50 was 1240 nM.
Compound `N#Cc1ccccc1-c1c(-c2ccc3c(=O)[nH]nc(CN)c3c2)cnn1CCO` [Example 4-193, 2-(4-(4-(aminomethyl)-1-oxo-1,2-dihydrophthalazin-6-yl)-1-(2-hydroxyethyl)-1H-pyrazol-5-yl)benzonitrile] has an IC50 greater than 10000 nM.
With `NCc1n[nH]c(=O)c2ccc(-c3cncc(C4CCCOC4)c3)cc12` (centres unmarked) [Example 4-195, 4-(aminomethyl)-6-(5-(tetrahydro-2H-pyran-3-yl)pyridin-3-yl)phthalazin-1(2H)-one] the IC50 was greater than 10000 nM.
`N#Cc1ccc(C#N)c(-c2cncc(-c3ccc4c(=O)[nH]nc(CN)c4c3)c2)c1` [Example 8-9, 2-(5-(4-(aminomethyl)-1-oxo-1,2-dihydrophthalazin-6-yl)pyridin-3-yl)terephthalonitrile] gave an IC50 greater than 10000 nM.
Compound `NCc1n[nH]c(=O)c2ccc(-c3cncc(C4CCCCC4)c3)cc12` [Example 14-1, 4-(aminomethyl)-6-(5-cyclohexyl-3-pyridyl)-2H-phthalazin-1-one] has an IC50 greater than 10000 nM.
